We go through 21 molecules from US11542249B2, “BTK inhibitor compounds” (Eli Lilly and Company, priority 2017, dated 2023).

Where only a bound is given, the exact number is not on record here.

Test [1] concerns the target human BTK (Homo sapiens (Human), UniProt Q06187). Put plainly: BTK LANTHASCREEN Eu Kinase Binding Assay. Conditions: IC50 value ± standard deviation; full-length His-labeled BTK, kinase tracer 236; read-out: hBTK Rel IC50. On the procedure: (§1) BTK and EGFR in Vitro Assays:
(§2) The BTK and EGFR biochemical assays utilize LANTHASCREEN® Eu Kinase Binding Assays from Thermo Fisher Scientific, measuring the binding of the kinase with a […] tracer. The assay buffer consists of 50 mM HEPES pH 7.5, 0.01% BRU™-35, 10 mM MgCl2, 1 mM EGTA, and 1 mM DTT. The test compounds are diluted and added to the assay plate with a Labcyte ECHO® 555 liquid handler. The compounds are tested in 10 point dose response curves (100 μM-0.005 μM) with a maximum DMSO concentration of 1%. The assays are performed in 20 μL in low-volume 384-well white proxiplates. For the BTK assay, the concentration of full-length His-labeled BTK in the assay is 5 nM, the Eu-anti-His antibody is 2 nM, and the kinase tracer 236 is 60 nM. For the EGFR assay, the concentration of truncated (amino acids 668-1210) GST-labeled EGFR is 5 nM, the Eu-anti-GST antibody is 2 nM, and the kinase tracer 199 is 10 nM. The components of the assay (compound, enzyme/antibody, tracer) are assembled and incubated for 30 min prior to being read on a Perkin-Elmer EnVision with excitation at 340 nm, tracer emission at 665 nm, and antibody emission at 615 nm. The signal ratio is converted to percent inhibition using the following equation: % Inhibition=100−[(Test Compound−Median Minimum)/(Median Maximum−Median Minimum)×100].
(§3) The following Table 1 and Table 2 describes the relative IC50 data vs. human BTK, human EGFR, and human whole blood CD69.
(In general: Time-resolved FRET reads energy transfer from a long-lived donor to a nearby acceptor.)

Test [2] has as its system activated B cells in human whole blood (CD69). The test can be described thus: Human Whole Blood CD69 in vitro assay (B cell activation, flow cytometry). It counts as cell-based. Conditions: IC50 value ± standard deviation, anti-human-IgD-Dextran stimulation, read-out: HWB CD69 Rel IC50. On the procedure:
Human Whole Blood CD69 in Vitro Assay:
The HWB CD69 assay measures activated B cells in human whole blood using a flow cytometer. Compounds are diluted and added to assay plates with a Labcyte ECHO® 555 liquid handler. Compounds are tested in 10 point dose response curves (20 μM-0.001 μM) in 96-well v-bottom plates with a maximum DMSO concentration of 0.2%. Fresh blood from individual healthy volunteer is mixed with HEPES (0.5 ml HEPES added per 10 ml blood) and 100 μl/well is added to compound plates. The plates are sealed and incubated in a 37° C. incubator for 3 h. Anti-human-IgD-Dextran is added to each well to give a final concentration of 100 ng/ml, mixed, and put back into the incubator. After 1 h, the cells are washed with cold FACS buffer and transferred to a deep well plate. The cells are incubated with anti-human CD69-PE (BIOLEGEND®, clone FN50) and anti-human CD19-APC (BIOLEGEND®, clone HIB19) antibodies on ice for 20 min. The cells are washed and incubated in eBioscience™ 1-step Fix/Lyse solution (10×) at RT to lyse the red blood cells and fix the other cells. The white cells are pelleted and washed in FACS buffer and then brought up in read buffer. The suspended cells are transferred to 96-well round bottom plates and read on an IntelliCyt iQue® Screener Plus flow cytometer. From the SSC (Side Scatter Channel) vs FSC (Forward Scatter Channel) graph, the lymphocytes are identified. Lymphocytes are identified with gated on positive CD19 marker for quantify CD69 (a marker of activated B lymphocytes) MFI (mean fluorescent intensity/cell). The signal ratio is converted to percent inhibition using the following equation: % Inhibition=100−[(Test Compound−Median Min)/(Median Max−Median Min)×100].
as §3
A general note: A flow cytometer gives signals particle by particle.

The target of test [3] is human EGFR (Homo sapiens (Human), UniProt P00533). Put plainly: EGFR LANTHASCREEN Eu Kinase Binding Assay. The note with it: IC50 value ± standard deviation; truncated GST-labeled EGFR, kinase tracer 199; read-out: hEGFR Rel IC50. On the procedure: as §1, §2
human EGFR, sequence (P00533 668-1210): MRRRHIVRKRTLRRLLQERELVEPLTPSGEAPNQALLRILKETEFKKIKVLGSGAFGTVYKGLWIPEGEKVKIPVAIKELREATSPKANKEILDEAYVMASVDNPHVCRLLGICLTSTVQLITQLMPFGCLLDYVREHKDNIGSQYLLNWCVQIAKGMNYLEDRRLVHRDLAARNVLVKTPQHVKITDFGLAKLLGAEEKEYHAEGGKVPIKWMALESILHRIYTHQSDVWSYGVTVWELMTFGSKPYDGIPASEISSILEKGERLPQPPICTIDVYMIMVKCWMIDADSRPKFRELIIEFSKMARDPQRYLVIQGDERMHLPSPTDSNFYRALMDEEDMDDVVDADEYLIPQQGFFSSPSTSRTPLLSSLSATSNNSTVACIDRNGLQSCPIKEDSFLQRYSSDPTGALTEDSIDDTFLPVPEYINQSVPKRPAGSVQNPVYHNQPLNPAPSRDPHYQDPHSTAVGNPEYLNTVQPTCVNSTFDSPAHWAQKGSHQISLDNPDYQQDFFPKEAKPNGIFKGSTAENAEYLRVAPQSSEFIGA

human BTK, sequence (Q06187 whole entry): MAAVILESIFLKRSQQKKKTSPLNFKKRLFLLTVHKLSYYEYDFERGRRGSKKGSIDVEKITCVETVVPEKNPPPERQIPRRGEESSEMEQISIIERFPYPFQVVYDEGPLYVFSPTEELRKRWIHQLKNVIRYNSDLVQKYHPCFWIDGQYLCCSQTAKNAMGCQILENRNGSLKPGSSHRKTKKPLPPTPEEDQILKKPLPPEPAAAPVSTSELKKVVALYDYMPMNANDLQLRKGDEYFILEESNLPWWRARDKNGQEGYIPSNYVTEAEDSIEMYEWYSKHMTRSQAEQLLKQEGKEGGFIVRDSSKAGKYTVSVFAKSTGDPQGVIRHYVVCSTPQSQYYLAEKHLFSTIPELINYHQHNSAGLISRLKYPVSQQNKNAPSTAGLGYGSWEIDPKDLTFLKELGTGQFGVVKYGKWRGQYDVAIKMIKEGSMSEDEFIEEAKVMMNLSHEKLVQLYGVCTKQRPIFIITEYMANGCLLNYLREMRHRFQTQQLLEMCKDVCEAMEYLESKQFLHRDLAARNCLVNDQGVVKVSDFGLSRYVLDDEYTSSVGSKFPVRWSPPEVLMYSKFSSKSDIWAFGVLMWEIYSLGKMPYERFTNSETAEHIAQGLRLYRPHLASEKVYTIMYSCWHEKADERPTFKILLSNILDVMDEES

In general, IC50 refers to the concentration at which inhibition is half-maximal. On to `C=CC(=O)N1CC(Nc2cncc(-c3cnc(Oc4cccc(OC(F)(F)F)c4)nc3)c2)C1` [Example 10, 1-[3-[[5-[2-[3-(trifluoromethoxy)phenoxy]pyrimidin-5-yl]-3-pyridyl]amino]azetidin-1-yl]prop-2-en-1-one], for which the results for the IC50 in test [1] and in test [2] were 34.5 ± 8.08 nM and 263 ± 129 nM, respectively.
In the case of `C=CC(=O)N1CC(Nc2cncc(-c3cnc(Oc4cccc(C(F)(F)F)c4)nc3)c2)C1` [Example 8, 1-[3-[[5-[2-[3-(trifluoromethyl)phenoxy]pyrimidin-5-yl]-3-pyridyl]amino]azetidin-1-yl]prop-2-en-1-one], the IC50 in test [1] was determined as 23.1 ± 0.0341 nM; in test [3], 724 ± 375 nM; in test [2], 239 ± 34.5 nM.
The matching figures for `C=CC(=O)N1CC(Nc2cncc(-c3cnc(Nc4ccc(F)c(Cl)c4)nc3)n2)C1` [Example 35, 1-[3-[[6-[2-(3-chloro-4-fluoro-anilino)pyrimidin-5-yl]pyrazin-2-yl]amino]azetidin-1-yl]prop-2-en-1-one]: below 5 nM, 37.3 ± 26.1 nM and 107 ± 45.4 nM.
The matching figures for `C=CC(=O)N1CC(Nc2cncc(-c3cnc(Nc4cccc(OC(F)(F)F)c4)nc3)n2)C1` [Example 37, 1-[3-[[6-[2-[3-(trifluoromethoxy)anilino]pyrimidin-5-yl]pyrazin-2-yl]amino]azetidin-1-yl]prop-2-en-1-one]: below 5 nM, 306 ± 33.8 nM and 136 ± 66.8 nM.
The corresponding values for `C=CC(=O)N1CC[C@H](Nc2cncc(-c3cnc(Nc4cccc(Cl)c4)nc3)c2)C1` [Example 15] are 6.01 ± 0.579 nM, 1370 ± 1210 nM and 219 ± 86 nM.
Turning to `C=CC(=O)N1CCC(Nc2cncc(-c3cnc(Nc4ccccn4)nc3)c2)CC1` [Example 22, 1-[4-[[5-[2-(2-pyridylamino)pyrimidin-5-yl]-3-pyridyl]amino]-1-piperidyl]prop-2-en-1-one], the results for the IC50 in test [1], in test [3] and in test [2] were 31 ± 12.4 nM, 3390 ± 2070 nM and 227 ± 81.1 nM, respectively.
The matching figures for `C=CC(=O)N1CCC(Nc2cncc(-c3cnc(Nc4cccc(C(F)(F)F)n4)nc3)c2)CC1` [Example 21, 1-[4-[[5-[2-[[6-(trifluoromethyl)-2-pyridyl]amino]pyrimidin-5-yl]-3-pyridyl]amino]-1-piperidyl]prop-2-en-1-one]: 8.84 ± 1.21 nM, above 100000 nM and 160 ± 38.2 nM.
In the case of `C=CC(=O)N1CC(Nc2cncc(-c3cnc(Oc4cccc(Cl)c4F)nc3)c2)C1` [Example 2, 1-[3-[[5-[2-(3-chloro-2-fluoro-phenoxy)pyrimidin-5-yl]-3-pyridyl]amino]azetidin-1-yl]prop-2-en-1-one], the IC50 is 6.89 ± 2.62 nM in test [1], 121 ± 66.4 nM in test [3] and 141 ± 41.3 nM in test [2].
Consider `CN(C)C/C=C/C(=O)N1CCC(Nc2cncc(-c3cnc(Oc4cccc(Cl)c4)nc3)n2)CC1` [Example 45, (E)-1-[4-[[6-[2-(3-chlorophenoxy)pyrimidin-5-yl]pyrazin-2-yl]amino]-1-piperidyl]-4-(dimethylamino)but-2-en-1-one], for which the IC50 in test [1] was 43.8 ± 4.17 nM; in test [3], 52600 ± 28800 nM; in test [2], 466 ± 159 nM.
The matching figures for `C=CC(=O)N1CC[C@H](Nc2cncc(-c3cnc(Nc4ccccc4OC(F)(F)F)nc3)n2)C1` [Example 36, 1-[(3S)-3-[[6-[2-[2-(trifluoromethoxy)anilino]pyrimidin-5-yl]pyrazin-2-yl]amino]pyrrolidin-1-yl]prop-2-en-1-one]: 6.72 ± 1.7 nM, 15200 ± 654 nM and 161 ± 71 nM.
The matching figures for `C=CC(=O)N1CC(C)(Nc2cncc(-c3cnc(Oc4cccc(Cl)c4)nc3)c2)C1` [Example 12, 1-[3-[[5-[2-(3-chlorophenoxy)pyrimidin-5-yl]-3-pyridyl]amino]-3-methyl-azetidin-1-yl]prop-2-en-1-one]: 6.95 ± 0.395 nM, 509 ± 246 nM and 200 ± 52.4 nM.
The corresponding values for `C=CC(=O)N1CC(Nc2cncc(-c3cnc(Oc4cccc(F)c4)nc3)n2)C1` [Example 25, 1-[3-[[6-[2-(3-fluorophenoxy)pyrimidin-5-yl]pyrazin-2-yl]amino]azetidin-1-yl]prop-2-en-1-one] are 19.3 ± 3.28 nM, 1580 ± 110 nM and 306 ± 63.6 nM.
With `C=CC(=O)N1CC(Nc2cncc(-c3cnc(Oc4cccc(F)c4)nc3)c2)C1` [Example 11, 1-[3-[[5-[2-(3-fluorophenoxy)pyrimidin-5-yl]-3-pyridyl]amino]azetidin-1-yl]prop-2-en-1-one], the IC50 in test [1] worked out at 18.1 ± 3.05 nM; in test [3], 644 ± 61.8 nM; in test [2] it was 242 ± 91.2 nM.
For the molecule `C=CC(=O)N1CC[C@H](Nc2cncc(-c3cnc(Nc4cccc(C)n4)nc3)c2)C1` [Example 17, 1-{(3S)-3-[(5-{2-[(6-methylpyridin-2-yl)amino]pyrimidin-5-yl}pyridin-3-yl)amino]pyrrolidin-1-yl}prop-2-en-1-one], in test [2], the IC50 came to 242 ± 64.3 nM.
As to `C=CC(=O)N1CC(Nc2cncc(-c3cnc(Nc4ccccc4OC(F)(F)F)nc3)n2)C1` [Example 43, 1-[3-[[6-[2-[2-(trifluoromethoxy)anilino]pyrimidin-5-yl]pyrazin-2-yl]amino]azetidin-1-yl]prop-2-en-1-one], the IC50 was below 5 nM in test [1], 676 ± 23 nM in test [3] and 105 ± 43 nM in test [2].
In the case of `C=CC(=O)N1CC(Nc2cncc(-c3cnc(Oc4cccc(OC(F)F)c4)nc3)c2)C1` [Example 4, 1-[3-[[5-[2-[3-(difluoromethoxy)phenoxy]pyrimidin-5-yl]-3-pyridyl]amino]azetidin-1-yl]prop-2-en-1-one], the IC50 in test [1] is 9.98 ± 4.3 nM; in test [3] it was 872 ± 456 nM; in test [2] it was 110 ± 79.4 nM.
The matching figures for `C=CC(=O)N1C[C@@H](Nc2cncc(-c3cnc(Oc4cccc(Cl)c4)nc3)n2)[C@@H]1C` (single isomer, unassigned; isomer 1) [Example 32]: 6.88 ± 1.37 nM, 194 ± 47.9 nM and 135 ± 66.5 nM.
The matching figures for `C=CC(=O)N1CC[C@H](Nc2cncc(-c3cnc(Nc4cccc(Cl)c4)nc3)n2)C1` [Example 34, 1-[(3S)-3-[[6-[2-(3-chloroanilino)pyrimidin-5-yl]pyrazin-2-yl]amino]pyrrolidin-1-yl]prop-2-en-1-one]: 18.3 nM, 639 ± 256 nM and 130 ± 44.7 nM.
The matching figures for `CN(C)C/C=C/C(=O)N1CCC(Nc2cncc(-c3cnc(Nc4cccc(Cl)c4)nc3)c2)CC1` [Example 23, (E)-1-[4-[[5-[2-(3-chloroanilino)pyrimidin-5-yl]-3-pyridyl]amino]-1-piperidyl]-4-(dimethylamino)but-2-en-1-one]: 24.1 ± 4.28 nM, 26500 ± 2880 nM and 475 ± 166 nM.
For `C=CC(=O)N1CC(Nc2cncc(-c3cnc(Oc4cccc(C#N)c4)nc3)c2)C1` [Example 3, 3-[5-[5-[(1-prop-2-enoylazetidin-3-yl)amino]-3-pyridyl]pyrimidin-2-yl]oxybenzonitrile], the IC50 in test [2] worked out at 595 ± 326 nM.
For `C=CC(=O)N1CC[C@H](Nc2cncc(-c3cnc(Nc4cccc(OC(F)F)c4)nc3)c2)C1` [Example 16, (S)-1-(3-((5-(2-((3-(difluoromethoxy)phenyl)amino)pyrimidin-5-yl)pyridin-3-yl)amino)pyrrolidin-1-yl)prop-2-en-1-one], the IC50 in test [2] is 118 ± 56 nM.
